# pKd: −log10 of the molar value.
# Target: T1, CapZβ (Homo sapiens, UniProt P47756)
# T1 construct: gene CAPZB; recombinant CapZβ
# Assay: isothermal titration calorimetry
# Format: binding
# Conditions: biotinylated vacuolin-1 analogue; labelled compound
# T1 sequence (P47756 2-272): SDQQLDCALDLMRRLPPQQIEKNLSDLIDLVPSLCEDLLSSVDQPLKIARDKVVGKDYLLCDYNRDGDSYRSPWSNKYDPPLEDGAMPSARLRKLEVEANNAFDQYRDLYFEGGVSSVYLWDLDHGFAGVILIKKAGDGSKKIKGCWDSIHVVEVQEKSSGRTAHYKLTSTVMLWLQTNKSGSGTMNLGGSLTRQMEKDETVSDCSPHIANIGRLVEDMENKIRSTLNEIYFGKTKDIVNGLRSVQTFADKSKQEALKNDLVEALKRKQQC
substance,measurement,value
biotin-V1,pKd,~5.51

# Source: publication PMC7946642, “Vacuolin-1 inhibits endosomal trafficking and metastasis via CapZβ” (Oncogene, 2021)
